Structures are written as SMILES. Counter-ions that a name gives are not always drawn.

The target of this experiment is T1, CFTR channel in human colonic T84 cells (Homo sapiens, UniProt P13569).
T1 construct: results in the phosphorylation and opening of CFTR anion channels; host or cells: human colonic T84 cells
T1 sequence (P13569 whole entry): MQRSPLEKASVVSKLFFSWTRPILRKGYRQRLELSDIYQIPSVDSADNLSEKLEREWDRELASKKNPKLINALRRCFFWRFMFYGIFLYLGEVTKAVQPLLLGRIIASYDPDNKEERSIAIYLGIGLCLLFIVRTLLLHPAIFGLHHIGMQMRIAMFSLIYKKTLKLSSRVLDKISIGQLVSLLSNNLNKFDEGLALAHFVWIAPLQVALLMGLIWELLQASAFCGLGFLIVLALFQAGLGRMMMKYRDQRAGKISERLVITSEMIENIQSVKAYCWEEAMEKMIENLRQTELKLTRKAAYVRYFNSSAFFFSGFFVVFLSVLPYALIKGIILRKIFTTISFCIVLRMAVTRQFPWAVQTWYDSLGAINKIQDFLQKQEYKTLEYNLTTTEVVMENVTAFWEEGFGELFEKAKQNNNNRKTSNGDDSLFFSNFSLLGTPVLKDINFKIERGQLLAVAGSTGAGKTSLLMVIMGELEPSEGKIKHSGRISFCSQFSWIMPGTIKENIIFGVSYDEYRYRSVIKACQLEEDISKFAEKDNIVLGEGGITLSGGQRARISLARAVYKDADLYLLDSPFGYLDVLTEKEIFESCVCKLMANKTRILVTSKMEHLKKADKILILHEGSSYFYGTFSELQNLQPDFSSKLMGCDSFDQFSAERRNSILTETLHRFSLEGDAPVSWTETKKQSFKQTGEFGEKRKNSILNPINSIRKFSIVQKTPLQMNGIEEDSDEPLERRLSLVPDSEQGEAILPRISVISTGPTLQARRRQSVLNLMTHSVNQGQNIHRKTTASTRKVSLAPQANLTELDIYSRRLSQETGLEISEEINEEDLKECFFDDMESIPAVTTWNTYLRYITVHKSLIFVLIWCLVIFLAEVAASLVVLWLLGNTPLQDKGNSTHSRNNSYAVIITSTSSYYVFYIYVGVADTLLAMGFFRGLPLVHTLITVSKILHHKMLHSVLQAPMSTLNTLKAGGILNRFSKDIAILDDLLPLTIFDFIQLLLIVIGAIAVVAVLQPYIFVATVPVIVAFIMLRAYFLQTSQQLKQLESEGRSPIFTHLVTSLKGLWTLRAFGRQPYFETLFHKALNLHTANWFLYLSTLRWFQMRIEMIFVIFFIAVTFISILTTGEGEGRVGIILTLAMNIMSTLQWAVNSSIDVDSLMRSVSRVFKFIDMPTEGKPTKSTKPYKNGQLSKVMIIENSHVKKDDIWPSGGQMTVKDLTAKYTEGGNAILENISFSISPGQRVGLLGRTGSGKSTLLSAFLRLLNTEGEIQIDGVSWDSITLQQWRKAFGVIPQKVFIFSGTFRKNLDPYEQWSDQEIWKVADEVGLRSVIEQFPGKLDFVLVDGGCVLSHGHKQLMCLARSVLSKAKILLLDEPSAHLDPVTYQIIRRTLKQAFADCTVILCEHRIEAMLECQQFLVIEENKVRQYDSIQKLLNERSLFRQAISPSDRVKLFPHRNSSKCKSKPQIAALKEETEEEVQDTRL
Briefly: T84 assay (FLIPR membrane potential dye, forskolin/IBMX-stimulated CFTR). Format: cell-based. The note with it: average of at least 2 runs unless annotated n = 1. An outline of the steps:
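T84 cells (25,000/well, grown overnight) were washed in HBSS with 10 mM Hepes, then loaded with FLIPR Red membrane potential dye for 45 min with or without compound. CFTR was stimulated with 10 μM forskolin plus 100 μM IBMX after a 10 s baseline. Depolarization was tracked as a fluorescence increase, read every second for 150 s.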
For the molecule `CN(Cc1ccc(COc2ncc(-c3cc(Cl)c(O)c(Cl)c3)nn2)cc1)Cc1ccc(-c2ccncc2)cc1` [Compound 187, 2,6-dichloro-4-(3-(4-((methyl(4-(pyridin-4-yl)benzyl)amino)methyl)benzyl-oxy)-1,2,4-triazin-6-yl)phenol], half-maximal inhibition (IC50) was put at 3.79 µM.

For the molecule `CC(C)(C)C(=O)N1CCN(Cc2ccc(COc3ncc(-c4cc(Cl)c(O)c(Cl)c4)nn3)cc2)CC1` [Compound 188, 1-(4-(4-((6-(3,5-dichloro-4-hydroxyphenyl)-1,2,4-triazin-3-yloxy)methyl)benzyl)piperazin1-yl)-2,2-dimethylpropan-1-one], half-maximal inhibition (IC50) required 10.3 µM.

As to `CN(Cc1ccc(COc2ncc(-c3cc(Cl)c(O)c(Cl)c3)nn2)cc1)Cc1ccc2ncccc2c1` [Compound 189, 2,6-dichloro-4-(3-(4-((methyl(quinolin-6-ylmethyl)amino)methyl)benzyl-oxy)-1,2,4-triazin-6-yl)phenol], the midpoint of inhibition, the IC50, lay at 4.72 µM.

For the molecule `CCN(CC)CC(NCc1ccc(COc2ncc(-c3cc(Cl)c(O)c(Cl)c3)nn2)cc1)c1ccccc1` (stereo not drawn) [Compound 190, 2,6-dichloro-4-(3-(4-((2-(diethylamino)-1-phenylethylamino)methyl)benzyloxy)-1,2,4-triazin-6-yl)phenol], it took 21 µM to reach half-maximal inhibition (IC50).

On to `OCCN(Cc1ccc(COc2ncc(-c3cc(Cl)c(O)c(Cl)c3)nn2)cc1)Cc1cccnc1` [Compound 191, 2,6-dichloro-4-(3-(4-(((2-hydroxyethyl)(pyridin-3-ylmethyl)amino)methyl)benzyl-oxy)-1,2,4-triazin-6-yl)phenol], for which the IC50 – broadly, the concentration that inhibits the measured activity by half – stood at 19.8 µM.

As to `CCN(Cc1ccccc1)Cc1ccc(COc2ncc(-c3cc(Cl)c(O)c(Cl)c3)nn2)cc1` [Compound 192, 4-(3-(4-((benzyl(ethyl)amino)methyl)benzyloxy)-1,2,4-triazin-6-yl)-2,6-dichlorophenol], 2.13 µM corresponded to half-maximal inhibition (IC50).

The molecule `Oc1c(Cl)cc(-c2cnc(OCc3ccc(CN4CCc5ccccc5C4c4ccncc4)cc3)nn2)cc1Cl` (stereo not drawn) [Compound 193] had a concentration for half-maximal inhibition (IC50) of 3.92 µM.

`Oc1c(Cl)cc(-c2cnc(OCc3ccc(CNC(CN4CCCC4)c4ccccc4)cc3)nn2)cc1Cl` (stereo not drawn) [Compound 194, 2,6-dichloro-4-(3-(4-((1-phenyl2-(pyrrolidin-1-yl)ethylamino)methyl)benzyloxy)-1,2,4-triazin-6-yl)phenol] came in with an IC50 of 18.9 µM.

Molecule `CN1CCN(CC(NCc2ccc(COc3ncc(-c4cc(Cl)c(O)c(Cl)c4)nn3)cc2)c2ccccc2)CC1` (stereo not drawn) [Compound 195, 2,6-dichloro-4-(3-(4-((2-(4-methylpiperazin-1-yl)-1-phenylethylamino)methyl)benzyloxy)-1,2,4-triazin-6-yl)phenol] registered an IC50 of 7.47 µM.

In turn, `CN(Cc1ccc(COc2ncc(-c3cc(Cl)c(O)c(Cl)c3)nn2)cc1)C(CN1CCOCC1)c1ccccc1` (stereo not drawn) [Compound 196, 2,6-dichloro-4-(3-(4-((methyl(2-morpholino-1-phenylethyl)amino)methyl)benzyloxy)-1,2,4-triazin-6-yl)phenol] came in with a half-inhibitory concentration (IC50) of 5.89 µM.

`CN(Cc1ccc(COc2ncc(-c3cc(Cl)c(O)c(Cl)c3)nn2)cc1)Cc1ccc(-c2ccccn2)cc1` [Compound 197, 2,6-dichloro-4-(3-(4-((methyl(4-(pyridin-2-yl)benzyl)amino)methyl)benzyl-oxy)-1,2,4-triazin-6-yl)phenol] showed an IC50 of 2.64 µM.

Consider `CN(C)CCOc1ccc(CN(C)Cc2ccc(COc3ncc(-c4cc(Cl)c(O)c(Cl)c4)nn3)cc2)cc1` [Compound 198, 2,6-dichloro-4-(3-(4-(((4-(2-(dimethylamino)ethoxy)benzyl)(methyl)amino)methyl)benzyloxy)-1,2,4-triazin-6-yl)phenol], for which the IC50 is 9.94 µM.

Molecule `CN(C)CCCOc1ccc(CN(C)Cc2ccc(COc3ncc(-c4cc(Cl)c(O)c(Cl)c4)nn3)cc2)cc1` [Compound 199, 2,6-dichloro-4-(3-(4-(((4-(3-(dimethylamino)propoxy)benzyl)(methyl)amino)methyl)benzyl-oxy)-1,2,4-triazin-6-yl)phenol] yielded a half-inhibitory concentration (IC50) of 7.54 µM.

`CN(Cc1ccc(COc2ncc(-c3cc(Cl)c(O)c(Cl)c3)nn2)cc1)Cc1cccc(CN2CCOCC2)c1` [Compound 200, 2,6-dichloro-4-(3-(4-((methyl(3-(morpholinomethyl)benzyl)amino)methyl)benzyloxy)-1,2,4-triazin-6-yl)phenol] returned an IC50 of 5.89 µM.

`CN1CCCN(Cc2ccc(CN(C)Cc3ccc(COc4ncc(-c5cc(Cl)c(O)c(Cl)c5)nn4)cc3)cc2)CC1` [Compound 201, 2,6-dichloro-4-(3-(4-((methyl(4-((4-methyl-1,4-diazepan-1-yl)methyl)benzyl)amino)methyl)benzyloxy)-1,2,4-triazin-6-yl)phenol]: the IC50 was determined as 9.99 µM.

On to `CN(Cc1ccc(COc2ncc(-c3cc(Cl)c(O)c(Cl)c3)nn2)cc1)Cc1ccc(-c2ncccn2)cc1` [Compound 202, 2,6-dichloro-4-(3-(4-((methyl(4-(pyrimidin-2-yl)benzyl)amino)methyl)benzyl-oxy)-1,2,4-triazin-6-yl)phenol], for which the IC50 turned out to be 1.87 µM.

Regarding `Cc1cncc(Oc2cccc(CN(C)Cc3ccc(COc4ncc(-c5cc(Cl)c(O)c(Cl)c5)nn4)cc3)c2)n1` [Compound 203, 2,6-dichloro-4-(3-(4-((methyl(3-(6-methylpyrazin-2-yloxy)benzyl)amino)methyl)benzyloxy)-1,2,4-triazin-6-yl)phenol], 2.43 µM corresponded to half-maximal inhibition (IC50).

`CN(C)CCCOc1cccc(CN(C)Cc2ccc(COc3ncc(-c4cc(Cl)c(O)c(Cl)c4)nn3)cc2)c1` [Compound 204, 2,6-dichloro-4-(3-(4-(((3-(3-(dimethylamino)propoxy)benzyl)(methyl)amino)methyl)benzyl-oxy)-1,2,4-triazin-6-yl)phenol] returned an IC50 of 2.43 µM.

As for `CN(Cc1ccc(COc2ncc(-c3cc(Cl)c(O)c(Cl)c3)nn2)cc1)Cc1cccc(-c2ncccn2)c1` [Compound 205, 2,6-dichloro-4-(3-(4-((methyl(3-(pyrimidin-2-yl)benzyl)amino)methyl)benzyl-oxy)-1,2,4-triazin-6-yl)phenol], the half-maximal inhibitory concentration (IC50) stood at 4.18 µM.

In turn, `CN(Cc1ccc(COc2ncc(-c3cc(Cl)c(O)c(Cl)c3)nn2)cc1)Cc1cccc(-c2cncnc2)c1` [Compound 206, 2,6-dichloro-4-(3-(4-((methyl(3-(pyrimidin-5-yl)benzyl)amino)methyl)benzyl-oxy)-1,2,4-triazin-6-yl)phenol] had an IC50 of 9.6 µM.

On to `CN(Cc1ccc(COc2ncc(-c3cc(Cl)c(O)c(Cl)c3)nn2)cc1)Cc1ccc(-c2cncnc2)cc1` [Compound 207, 2,6-dichloro-4-(3-(4-((methyl(4-(pyrimidin-5-yl)benzyl)amino)methyl)benzyl-oxy)-1,2,4-triazin-6-yl)phenol], for which 2.99 µM corresponded to half-maximal inhibition (IC50).

For the molecule `CN(Cc1ccc(COc2ncc(-c3cc(Cl)c(O)c(Cl)c3)nn2)cc1)Cc1ccc(CN2CCCCC2)cc1` [Compound 208, 2,6-dichloro-4-(3-(4-((methyl(4-(piperidin-1-ylmethyl)benzyl)amino)methyl)benzyloxy)-1,2,4-triazin-6-yl)phenol, formate salt], half-maximal inhibition (IC50) required 8.24 µM.

As to `Cc1cncc(Oc2ccc(CN(C)Cc3ccc(COc4ncc(-c5cc(Cl)c(O)c(Cl)c5)nn4)cc3)cc2)n1` [Compound 209, 2,6-dichloro-4-(3-(4-((methyl(4-(6-methylpyrazin-2-yloxy)benzyl)amino)methyl)benzyloxy)-1,2,4-triazin-6-yl)phenol], the 50% inhibitory concentration (IC50) turned out to be 4.8 µM.

Regarding `CN(Cc1ccc(COc2ncc(-c3cc(Cl)c(O)c(Cl)c3)nn2)cc1)Cc1ccc(-c2ccc(C(F)(F)F)cn2)cc1` [Compound 210, 2,6-dichloro-4-(3-(4-((methyl(4-(5-(trifluoromethyl)pyridin-2-yl)benzyl)amino)methyl)benzyloxy)-1,2,4-triazin-6-yl)phenol], the half-maximal inhibitory concentration (IC50) is 6.42 µM.

Take `CN(Cc1ccc(COc2ncc(-c3cc(Cl)c(O)c(Cl)c3)nn2)cc1)Cc1ccc(CN2CCCC2)cc1` [Compound 211, 2,6-dichloro-4-(3-(4-((methyl(4-(pyrrolidin-1-ylmethyl)benzyl)amino)methyl)benzyloxy)-1,2,4-triazin-6-yl)phenol, diformate salt]: the concentration for half-maximal inhibition (IC50) stood at 8.04 µM.

For the molecule `CN(Cc1ccc(COc2ncc(-c3cc(Cl)c(O)c(Cl)c3)nn2)cc1)Cc1cccc(CN2CCCC2)c1` [Compound 212, 2,6-dichloro-4-(3-(4-((methyl(3-(pyrrolidin-1-ylmethyl)benzyl)amino)methyl)benzyloxy)-1,2,4-triazin-6-yl)phenol, formate salt], the IC50 was determined as 4.9 µM.

`CN(Cc1ccc(COc2ncc(-c3cc(Cl)c(O)c(Cl)c3)nn2)cc1)Cc1cccc(-c2cccnc2)c1` [Compound 213, 2,6-dichloro-4-(3-(4-((methyl(3-(pyridin-3-yl)benzyl)amino)methyl)benzyl-oxy)-1,2,4-triazin-6-yl)phenol] came in with an IC50 of 4.31 µM.

`CN(Cc1ccc(COc2ncc(-c3cc(Cl)c(O)c(Cl)c3)nn2)cc1)Cc1ccc(OCCN2CCOCC2)cc1` [Compound 214, 2,6-dichloro-4-(3-(4-((methyl(4-(2-morpholinoethoxy)benzyl)amino)methyl)benzyloxy)-1,2,4-triazin-6-yl)phenol] yielded a half-maximal inhibitory concentration (IC50) of 5.19 µM.

With `OCCN(Cc1ccc(COc2ncc(-c3cc(Cl)c(O)c(Cl)c3)nn2)cc1)Cc1cccc(Cl)c1Cl` [Compound 215, 2,6-dichloro-4-(3-(4-(((2,3-dichlorobenzyl)(2-hydroxyethyl)amino)methyl)benzyloxy)-1,2,4-triazin-6-yl)phenol], the 50% inhibitory concentration (IC50) was 4.54 µM.

In the case of `CC(=O)N1CCN(Cc2ccc(COc3ncc(-c4cc(Cl)c(O)c(Cl)c4)nn3)cc2)CC1` [Compound 216, 1-(4-(4-((6-(3,5-dichloro-4-hydroxyphenyl)-1,2,4-triazin-3-yloxy)methyl)benzyl)piperazin-1-yl)ethanone], inhibition was half-maximal at 23.2 µM (IC50).

For the origin of these results see US20090264433A1, “Compounds, Compositions and Methods Comprising Triazine Derivatives” (Institute for OneWorld Health, priority 2008, published 2009).
